Earlier results on two molecules are cited in EP0615447B1, “SLOW-RELEASE FLURBIPROFEN-CONTAINING MEDICAMENT AND ITS USE” (ALFATEC-PHARMA GmbH, priority 1991, dated 1993).

Molecules are shown by their SMILES.

The conditions of data set [1]: in vivo.
For data set [2] the following is noted: water.
For data set [3] the following is noted: aqueous medium; compared with the racemate.

With `CC(C(=O)O)c1ccc(-c2ccccc2)c(F)c1` (racemic) [Flurbiprofen, 2-(2-Fluor-4-biphenylyl)propionsäure], the pKA is listed as 4,16. For the same molecule, the Plasmahalbwertszeit in data set [1] is given as 3,9 h. Besides, the “Löslichkeit in Wasser” value in data set [2] is on record as 32,5 mg/l.
Regarding `CC(C(=O)O)c1ccc(-c2ccccc2)c(F)c1` (racemic) [Pseudoracemat], in data set [3], the Auflösungsgeschwindigkeit entry is recorded as “wesentlich höher”.
